Reference: publication PMC8372979 (Journal of medicinal chemistry, 2020)

What was measured:
[1] = Pharmacokinetics in female NMRI mice; assay type: in vivo, mouse
CYP3A4 = CYP3A4 induction; assay type: in vitro ADME; conditions: in words
Caco-2 cells = assay: Caco-2 permeability; assay type: in vitro ADME
[2] = system: Bloodstream Trypanosoma brucei brucei Lister 427 (STIB 795); assay: Growth inhibition assay for T. brucei brucei; assay type: cell-based; conditions: pEC50=−logEC50; 72 h, resazurin

Row | Compound | Cmax ([1]; female, NMRI, mouse, in vivo, ip, 10 mg/kg, Mean Cmax ± SD, non-infected female NMRI mice, 10 mg/kg ip, without ABT-pretreatment, blood) | Mean tmax ([1]; infected female NMRI mice, 30 mg/kg ip + ABT, day 1, blood) | CYP3A4 Liability (induction) (CYP3A4) | A-B Permeability Ranking (Caco-2 cells; Caco-2) | Caco-2 efflux (Caco-2 cells; in words) | Caco-2 permeability (Caco-2 cells; in words) | T. brucei pEC50 [2]
1 | Cn1nccc1Nc1nc(NCC(F)(F)F)c2nc[nH]c2n1 [Compound 4aa, N^2-(1-methyl-1H-pyrazol-5-yl)-N^6-(2,2,2-trifluoroethyl)-9H-purine-2,6-diamine] | 3670 ± 922 ng/mL | 30 to 120 min | does not have CYP3A4 induction liability | Higher | rapidly effluxed | Permeable | 
2 | N^6-(tert-butyl)-N^2-(thiophen-3-yl)-9H-purine-2,6-diamine [Compound 5r] |  |  |  |  |  |  | 7.1
